Laboratory results from patent publication US20240383908A1, “SYNTHESIS AND APPLICATION OF PHOSPHATASE DEGRADER” (HINOVA PHARMACEUTICALS INC., priority 2021, published 2024).
pIC50: −log10 of the molar value. Structures can show the parent of a compound that is named as a salt.

Legend:
Type in all cases: cell-based
NCI-H358 = test: Inhibition of cell proliferation, NCI-H358 (CCK-8); conditions: Homo sapiens, NCI-H358 cells, read-out: Inhibition activity on the proliferation of different cell lines NCI-H358 (IC50)
Description: (§1) (1) MV-411 cells were cultured in the cell culture medium, and then well-growing cells were selected and inoculated in a 96-well plate at 80 μL/well, with 2×10^4 cells/well. The plate was incubated overnight in a 5% CO2 cell incubator at 37° C.
(§2) (2) 10 mM storage solution of each drug was prepared using dimethylsulfoxide (DMSO). The stock solution was diluted in a ratio of 1:3 with DMSO before use, and then the solution was serially diluted in a ratio of 1:3, to obtain 9 gradient concentrations. Each concentration was further diluted with the medium in a ratio of 1:200 (to ensure that the DMSO concentration in the culture system was 0.1%). Two wells were set for each concentration. 20 μL of each compound solution was added to the cell culture well (with a final concentration of 10 μM, 3.3 μM, 1.1 μM . . . ). The plate was gently shaken and mixed. Additionally, 3 negative control wells (only containing cells) and 3 blank control wells (only containing the medium) were included (6 wells were each added with 20 μL of DMSO diluted with the medium in a ratio of 1:200).
(§3) (1) After 5 days of cultivation, 10 μL of CCK-8 was added to each well, and then the plate was further cultured for 3 h at 37° C. in a 5% CO2 cell incubator.
(§4) (2) The absorbance (OD value) was measured at 450 nm with a multifunctional microplate reader. (3) The data were analyzed using the Dose-response-inhibition equation in GraphPad Prism8 software to obtain the IC50 value.
(§5) Using a similar method, the IC50 value (nM) for the inhibitory activity of the compound according to the present invention against different cell lines was obtained, and the results are shown in Table 3 (++++: IC50>5 μM; +++: 1 μM<IC50<5 μM; ++: IC50<1 μM).

SHP2 protein [1] = molecular target: T1, SHP2 protein (Homo sapiens, UniProt Q06124); test: Degradation activity on SHP2 protein in MV-411 cells (Western blot, DC50); parameters: endogenous in cells; conditions: MV411 cells, 24 hours, read-out: Degradation activity for differenct cell lines MV411 (DC50)
T1 sequence (Q06124 1-593): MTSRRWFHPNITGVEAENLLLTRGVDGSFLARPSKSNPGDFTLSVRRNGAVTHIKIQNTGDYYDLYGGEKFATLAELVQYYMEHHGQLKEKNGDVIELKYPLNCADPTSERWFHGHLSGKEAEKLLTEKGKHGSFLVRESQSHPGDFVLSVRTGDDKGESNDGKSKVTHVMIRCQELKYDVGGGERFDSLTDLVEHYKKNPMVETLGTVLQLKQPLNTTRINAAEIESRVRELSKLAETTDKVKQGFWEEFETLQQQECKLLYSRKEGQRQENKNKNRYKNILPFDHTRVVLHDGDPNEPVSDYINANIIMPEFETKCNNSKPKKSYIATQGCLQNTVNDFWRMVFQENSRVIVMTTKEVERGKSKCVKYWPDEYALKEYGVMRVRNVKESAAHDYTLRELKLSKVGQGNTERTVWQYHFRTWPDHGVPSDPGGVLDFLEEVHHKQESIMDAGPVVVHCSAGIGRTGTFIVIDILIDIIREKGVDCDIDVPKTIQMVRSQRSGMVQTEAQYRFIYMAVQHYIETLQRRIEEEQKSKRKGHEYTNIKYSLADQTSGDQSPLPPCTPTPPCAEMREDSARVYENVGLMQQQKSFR
Summary of the method: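 Western blot of SHP2 (GAPDH loading control, 30 μg protein/lane) in lysates of MV-411 cells exposed 24 h to final compound concentrations of 100, 10, 3, 1, 0.3 and 0.1 nM (0.1% DMSO). Degradation relative to DMSO set at 100%; DC50 derived by curve fitting.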

MIA Paca-2 = test: Inhibition of cell proliferation, MIA Paca-2 (CCK-8); conditions: Homo sapiens, MIA Paca-2 cells, read-out: Inhibition activity on the proliferation of different cell lines MIA Paca-2 (IC50)
Description: as §1, §2, §3, §4, §5

SHP2 protein [2] = molecular target: T1, SHP2 protein; test: Degradation activity on SHP2 protein in MIA Paca-2 cells (Western blot, DC50); parameters: endogenous in cells; host or cells: MIA Paca-2 cells; conditions: read-out: Degradation activity for differenct cell lines MIA Paca-2 (DC50)
Summary of the method: (§6)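 DC50 is the concentration degrading 50% of SHP2 relative to DMSO control. It was derived by fitting Western blot band densitometry (anti-SHP2, GAPDH reference) from cells exposed 24 h to 0.1–100 nM compound in 0.1% DMSO.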

SHP2 protein [3] = molecular target: T1, SHP2 protein; test: Degradation activity on SHP2 protein in NCI-H358 cells (Western blot, DC50); parameters: endogenous in cells; conditions: read-out: Degradation activity for differenct cell lines NCI-H358 (DC50)
Summary of the method: as §6

MV-411 cell line = test: Inhibition of cell proliferation, MV-411 (CCK-8); conditions: Homo sapiens, MV4-11, 120 h, MV411 cells, 5 days, read-out: Inhibition activity on the proliferation of different cell lines MV411 (IC50)
Description: • MV-411 cell line (COBIER, CBP-60522) • FBS (GEMINI, Cat. No. 900-108) • 0.01M PBS (Biosharp, Cat. No. 162262) • IMDM (Hyclone, Cat. No. SH30228.01) • Penicillin-Streptomycin (Gibco, Cat. No. 15140122) • DMSO (Sigma, Cat. No. D5879) • Cell counting kit-8 (Signalway Antibody, Cat. No. CP002) • Centrifuge Tube, 15 ml (Excell Bio, Cat. No. CS015-0001) • Cell Culture Dish, (WHB, Cat. No. CS016-0128) • 96-well cell culture cluster (Corning, Cat. No. 3599)
• (1) Cell culture medium: IMDM medium+10% FBS+1% Pen Strep; • (2) PBS buffer: PBS powder was dissolved in 2 L of ultrapure water and sterilized;
as §1, §2, §3, §4

NCI-H1975 = test: Inhibition of cell proliferation, NCI-H1975 (CCK-8); conditions: Homo sapiens, NCI-H1975 cells, read-out: Inhibition activity on the proliferation of different cell lines NCI-H1975 (IC50)
Description: as §1, §2, §3, §4, §5

KYSE 520 = test: Inhibition of cell proliferation, KYSE 520 (CCK-8); conditions: Homo sapiens, KYSE 520 cells, read-out: Inhibition activity on the proliferation of different cell lines KYSE 520 (IC50)
Description: as §1, §2, §3, §4, §5

pIC50 (NCI-H358) | DC50 (SHP2 protein [1]) [nM] | pIC50 (MIA Paca-2) | DC50 (SHP2 protein [2]) [nM] | DC50 (SHP2 protein [3]) [nM] | pIC50 (MV-411 cell line) | pIC50 (NCI-H1975) | SMILES | pIC50 (KYSE 520)
> 6.00 | < 100 | > 6.00 |  |  |  |  | CC1(N)CCN(c2cnc(Sc3cccc(NC(=O)CCCCCCCO[C@H]4CCN(Cc5ccc(COc6cccc7c6CN(C6CCC(=O)NC6=O)C7=O)cc5)C4)c3)cn2)CC1 (some centres unmarked) [Compound 96] | 
< 5.30 | < 100 | < 5.30 | 100 to 1000 | 100 to 1000 |  |  | CC1(N)CCN(c2cnc(Sc3cccc(NC(=O)CCCCCCN4CC5(CCN(c6ccc(C(=O)NCc7ccc8c(c7)CN(C7CCC(=O)NC7=O)C8=O)nn6)C5)C4)c3)cn2)CC1 (centres unmarked) [Compound 110] | 
5.30 to 6.00 | > 1000 | 5.30 to 6.00 |  |  | > 6.00 |  | O=C1CCC(N2Cc3cc(CNC(=O)c4ccc(N5CCC6(CN(CCC(=O)Nc7cccc(Sc8cnc(N9CCC%10(CCNC%10)CC9)cn8)c7)C6)C5)nn4)ccc3C2=O)C(=O)N1 (centres unmarked) [Compound 111] | 
 | < 100 |  | < 100 | < 100 | > 6.00 |  | CC1CN(c2ccc(C(=O)NCc3ccc4c(c3)CN(C3CCC(=O)NC3=O)C4=O)nn2)CC(C)N1CCCCCCCCC(=O)Nc1cccc(Sc2cnc(N3CCC(C)(N)CC3)cn2)c1 (centres unmarked) [Compound 138] | 
 | < 100 | 5.30 to 6.00 |  |  |  |  | CN(Cc1ccc2c(c1)CN(C1CCC(=O)NC1=O)C2=O)C(=O)c1ccc(N2CCN(CCCCCCCCC(=O)Nc3cccc(Sc4cnc(N5CCC(C)(N)CC5)cn4)c3)C(C(F)(F)F)C2)nn1 (centres unmarked) [Compound 175] | 
 | < 100 | 5.30 to 6.00 | < 100 | < 100 |  |  | CC1(N)CCN(c2cnc(Sc3cccc(NC(=O)CCCCCCN4CC5(CCN(c6ncc(C(=O)NCc7ccc8c(c7)CN(C7CCC(=O)NC7=O)C8=O)cc6Cl)C5)C4)c3)cn2)CC1 (centres unmarked) [Compound 181] | 
 |  |  | < 100 |  |  | 5.30 to 6.00 | CC1(N)CCN(c2cnc(Sc3cccc(NC(=O)c4ccc(N5CCC(N6CC=C(c7ccc(C(=O)NCc8ccc9c(c8)CN(C8CCC(=O)NC8=O)C9=O)nc7)CC6)C5)cc4)c3)cn2)CC1 (centres unmarked) [Compound 403] | 
 |  |  | < 100 |  | 5.30 to 6.00 | > 6.00 | C[C@@H]1OCC2(CCN(c3cnc(Sc4cccc(NC(=O)c5ccc(N6CCC(N7CC=C(c8ccc(C(=O)NCc9ccc%10c(c9)CN(C9CCC(=O)NC9=O)C%10=O)nc8)CC7)CC6)c(F)c5)c4)cn3)CC2)[C@@H]1N (some centres unmarked) [Compound 412] | 5.30 to 6.00
 |  |  | < 100 |  | < 5.30 |  | CC1(N)CCN(c2cnc(Sc3cccc(NC(=O)c4ccc(N5CCC(N6CC=C(c7cnc(C(=O)NCc8ccc9c(c8)CN(C8CCC(=O)NC8=O)C9=O)c(F)c7)CC6)CC5)c(F)c4)c3)cn2)CC1 (centres unmarked) [Compound 414] | 5.30 to 6.00
 |  |  | < 100 | < 100 | > 6.00 |  | Cc1cc(N2CCC(N3CC=C(c4ccc(C(=O)NCc5ccc6c(c5)CN(C5CCC(=O)NC5=O)C6=O)nc4)CC3)CC2)ccc1C(=O)Nc1cccc(Sc2cnc(N3CCC(C)(N)CC3)cn2)c1 (centres unmarked) [Compound 421] | 5.30 to 6.00
 |  |  | < 100 | < 100 | 5.30 to 6.00 |  | Cc1cc(C(=O)Nc2cccc(Sc3cnc(N4CCC(C)(N)CC4)cn3)c2)ccc1N1CCC(N2CC=C(c3ccc(C(=O)NCc4ccc5c(c4)CN(C4CCC(=O)NC4=O)C5=O)nc3)CC2)CC1 (centres unmarked) [Compound 422] | < 5.30
 |  |  | < 100 |  |  | > 6.00 | C[C@@H]1OCC2(CCN(c3cnc(Sc4cccc(NC(=O)c5ccc(N6CCC(N7CC=C(c8ccc(C(=O)NCc9ccc%10c(c9)CN(C9CCC(=O)NC9=O)C%10=O)c(F)c8)CC7)CC6)c(F)c5)c4)cn3)CC2)[C@@H]1N (some centres unmarked) [Compound 482] | 
 |  |  | < 100 |  |  | > 6.00 | C[C@@H]1OCC2(CCN(c3cnc(Sc4cccc(NCc5ccc(N6CCC(N7CC=C(c8ccc(C(=O)NCc9ccc%10c(c9)CN(C9CCC(=O)NC9=O)C%10=O)nc8)CC7)CC6)c(F)c5)c4)cn3)CC2)[C@@H]1N (some centres unmarked) [Compound 485] | 
 |  |  | > 1000 |  | > 6.00 |  | C[C@@H]1OCC2(CCN(c3cnc(Sc4cccc(NC(=O)c5ccc(N6CCC(N7CCN(c8ccc(C(=O)NCc9ccc%10c(c9)CN(C9CCC(=O)NC9=O)C%10=O)c(F)c8)CC7)CC6)cc5)c4)cn3)CC2)[C@@H]1N (some centres unmarked) [Compound 500] | 5.30 to 6.00
 |  |  | < 100 |  | > 6.00 | 5.30 to 6.00 | C[C@@H]1OCC2(CCN(c3cnc(Sc4cccc(NC(=O)c5ccc(N6CCC(N7CCN(c8ccc(C(=O)NCc9ccc%10c(c9)CN(C9CCC(=O)NC9=O)C%10=O)c(F)c8)CC7)CC6)c(F)c5)c4)cn3)CC2)[C@@H]1N (some centres unmarked) [Compound 501, hydrochloride] | 5.30 to 6.00
 |  |  | > 1000 |  | > 6.00 |  | C[C@@H]1OCC2(CCN(c3cnc(Sc4cccc(NC(=O)c5ccc(N6CCC(N7CCN(c8ccc(C(=O)NCc9ccc%10c(c9)CN(C9CCC(=O)NC9=O)C%10=O)cc8F)CC7)CC6)cc5)c4)cn3)CC2)[C@@H]1N (some centres unmarked) [Compound 514] | 5.30 to 6.00
 |  |  | < 100 |  | > 6.00 |  | C[C@@H]1OCC2(CCN(c3cnc(Sc4cccc(NC(=O)c5ccc(N6CCC(N7CC=C(c8ccc(C(=O)NCc9ccc%10c(c9)CN(C9CCC(=O)NC9=O)C%10=O)nn8)CC7)CC6)c(F)c5)c4)cn3)CC2)[C@@H]1N (stereo partly drawn) [Compound 519, N-{[2-(2,6-oxohexahydropyridine-3-yl)-1-oxo-2,3-dihydro-1H-isoindol-5-yl]methyl}-6-(1-{1-[2-fluoro-4-({[3-({5-[(3S,4S)-4-amino-3-methyl-8-aza-2-oxaspiro[4.5]decan-8-yl]pyrazin-2-yl}thio)phenyl]amino}carbonyl)phenyl]hexahydropyridine-4-yl}-1,2,3,6-tetrahydropyridin-4-yl)-1,2-diazacyclohexane-3-formamide hydrochloride] | 5.30 to 6.00
